Measured values from PubChem BioAssay AID1033 (Sanford-Burnham Center for Chemical Genomics, 2008).
Calls of active or inactive are those of the source. How the calls were made is not given here.

Target: Chaperone protein DnaK (Escherichia coli (strain K12)) (UniProt P0A6Y8)
Assay: E. coli DnaK SBD ligand binding – biophysical, NMR, chaperone (AID 1033)
Conditions: Purified DnaK SBD

Chaperone protein DnaK (Escherichia coli (strain K12)), sequence (P0A6Y8 whole entry, looked up): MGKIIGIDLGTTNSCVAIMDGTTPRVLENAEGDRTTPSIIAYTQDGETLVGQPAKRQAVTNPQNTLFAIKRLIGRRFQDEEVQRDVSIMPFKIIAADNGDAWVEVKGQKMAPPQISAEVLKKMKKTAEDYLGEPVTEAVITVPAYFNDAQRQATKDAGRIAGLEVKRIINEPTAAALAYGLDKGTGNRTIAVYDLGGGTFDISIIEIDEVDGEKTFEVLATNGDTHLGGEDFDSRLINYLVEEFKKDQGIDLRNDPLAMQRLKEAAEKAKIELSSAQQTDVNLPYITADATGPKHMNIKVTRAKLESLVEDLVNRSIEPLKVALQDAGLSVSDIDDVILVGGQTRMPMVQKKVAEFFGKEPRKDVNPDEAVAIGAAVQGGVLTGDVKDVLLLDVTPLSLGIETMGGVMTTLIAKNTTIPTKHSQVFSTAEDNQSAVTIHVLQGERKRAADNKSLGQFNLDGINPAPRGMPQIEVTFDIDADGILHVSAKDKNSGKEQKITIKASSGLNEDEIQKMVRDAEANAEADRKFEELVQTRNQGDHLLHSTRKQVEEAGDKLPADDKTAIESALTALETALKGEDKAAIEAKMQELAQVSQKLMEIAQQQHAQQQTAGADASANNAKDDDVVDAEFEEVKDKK

Cc1cc(C(=O)c2c(C)nn(C)c2Cl)n(C)n1
Kd: > 4 mM (inactive)

CS(=O)(=O)NC1CCN(Cc2ccccc2)CC1
Kd: > 4 mM (inactive)

CN1CCCCC1c1ccc(-c2cccnc2)nc1 (stereo unspecified)
Kd: > 4 mM (inactive)

Cc1ccc2c(c1)CCCN2C(=O)c1c(C)noc1C
Kd: > 4 mM (inactive)

Cn1nnc2cc(C(=O)N3CCSCC3)ccc21
Kd: > 4 mM (inactive)

CCOC(=O)c1c(SC)nc(=O)[nH]c1C
Kd: > 4 mM (inactive)

CCCCC(Nc1n[nH]c(=O)[nH]c1=O)C(=O)O (stereo unspecified)
Kd: > 4 mM (inactive)

COc1ccc(/C=C2\SC(N)=NC2=O)cc1
Kd: > 4 mM (inactive)

Brc1ccc(-c2nc(-c3ccncc3)no2)o1
Kd: > 4 mM (inactive)

NCC1COc2ccccc2O1 (stereo unspecified)
Kd: > 4 mM (inactive)

CCC(C)C(=O)O[C@H]1[C@H](O)C2C(CN3CC(C)CCC3[C@@]2(C)O)C2C[C@]34O[C@]5(O)C(OC(=O)C(C)(O)CC)CC[C@@]3(C)C5C(OC(C)=O)[C@@H](OC(C)=O)C4[C@@]21O (stereo partly specified)
Kd: > 4 mM (inactive)

O=C(O)CNc1ncnc2nc[nH]c12
Kd: > 4 mM (inactive)

C/C=C(/C)C(=O)O[C@@H]1[C@H](OC(C)=O)[C@@]2(CO)C(CC1(C)C)C1=CCC3[C@@]4(C)CC[C@H](O[C@@H]5O[C@H](C(=O)O)[C@@H](O[C@@H]6O[C@H](CO)[C@@H](O)[C@H](O)[C@H]6O)[C@H](O)[C@H]5O[C@@H]5O[C@H](CO)[C@@H](O)[C@H](O)[C@H]5O)[C@](C)(CO)C4CC[C@@]3(C)[C@]1(C)C[C@H]2O (stereo partly specified)
Kd: > 4 mM (inactive)

CN1CCn2c1nc(N1CCCCC1)nc2=O
Kd: > 4 mM (inactive)

NC(=O)CSc1nnc(-c2ccncc2)o1
Kd: > 4 mM (inactive)

COc1ccc(-c2ccc(OC)cc2C(=O)O)cc1
Kd: > 4 mM (inactive)

COC(=O)c1cn(C(=O)OC)c2ccccc12
Kd: > 4 mM (inactive)

COc1c2ccccc2nc2occc12
Kd: > 4 mM (inactive)

COC1(C)CCC2OC2(C)CCC2C1CC2(C)C (stereo unspecified)
Kd: > 4 mM (inactive)

CC(C)CC(=O)Nc1c[nH]c(=O)[nH]c1=O
Kd: > 4 mM (inactive)

C/C=C1\[C@H]2C=C(C)C[C@]1(N)c1ccc(=O)[nH]c1C2
Kd: > 4 mM (inactive)

ON=c1ccc2nc3ccccc3nc2cc1
Kd: > 4 mM (inactive)

CC(=O)c1cnc(Nc2nc(C)c3ccccc3n2)nc1C
Kd: > 4 mM (inactive)

O=C(c1ccccc1)c1cncc(Br)c1
Kd: > 4 mM (inactive)

Nc1ccc2c(c1)COc1ccccc1O2
Kd: > 4 mM (inactive)

CN(C)S(=O)(=O)c1ccccc1C#N
Kd: > 4 mM (inactive)

CC(=O)Nn1cc2c(=O)n(C)c(=O)n(C)c2c1
Kd: > 4 mM (inactive)

O=C1CCC(=O)N1c1nc2ccccc2s1
Kd: > 4 mM (inactive)

COc1cccc(S(=O)(=O)Nc2cccnc2)c1
Kd: > 4 mM (inactive)

CC(=O)CC(=O)N1C(O)CC[N+]1(C)C (stereo unspecified)
Kd: > 4 mM (inactive)

O=C(O)c1[nH]nc2c1COc1ccccc1-2
Kd: > 4 mM (inactive)

O=C1CCCN1C(=O)CN1CCOCC1
Kd: > 4 mM (inactive)

COc1cc(C2NC(=S)NC(C)=C2C(C)=O)ccc1O (stereo unspecified)
Kd: > 4 mM (inactive)

CC(=O)OCC(=O)[C@@]1(O)CCC2C3CC[C@@H]4C[C@H](OC(C)=O)CC[C@]4(C)C3C(=O)C[C@@]21C (stereo partly specified)
Kd: > 4 mM (inactive)

CN1C(=O)CC(=O)N(C)c2ccccc21
Kd: > 4 mM (inactive)

C[C@]12CCC3C(CC[C@]4(O)C[C@@H](O)CC[C@]34C=O)[C@@]1(O)CCC2C1=CC(=O)OC1 (stereo partly specified)
Kd: > 4 mM (inactive)

CC(=O)c1c(C)nc(-c2ccc(F)cc2)n1O
Kd: > 4 mM (inactive)

O=C1CC(=O)N(c2ccccc2F)C(=S)N1
Kd: > 4 mM (inactive)

Cc1cc(O)cc(=O)o1
Kd: > 4 mM (inactive)

COCCOc1nc2ccccc2nc1C
Kd: > 4 mM (inactive)

CCCCN1C(=O)N(C)C2NC(=O)NC21 (stereo unspecified)
Kd: > 4 mM (inactive)

CN1CCN(c2cc(=O)n(C)c(=O)[nH]2)CC1
Kd: > 4 mM (inactive)

Cc1cc(C(=O)N2CCN(c3ccccn3)CC2)no1
Kd: > 4 mM (inactive)

CC(=O)NC(=S)Nc1ccccc1C(N)=O
Kd: > 4 mM (inactive)

CC1(C)C(=O)C=C[C@@]2(C)C1C[C@@H](O)[C@]1(C)C2CC[C@@]2(C)[C@H](c3ccoc3)OC(=O)[C@H]3O[C@]321 (stereo partly specified)
Kd: > 4 mM (inactive)

CCOC(=O)CNC(=O)CSc1nnc(C)c(=O)[nH]1
Kd: > 4 mM (inactive)

C/C=C(/C)C(=O)O[C@H]1CC[C@@]2(C)[C@@H]3CC[C@H]4[C@]5(O)C[C@H](O)[C@@]6(O)[C@@H](CN7C[C@@H](C)CC[C@H]7[C@@]6(C)O)[C@]5(O)C[C@@]42OC13O
Kd: > 4 mM (inactive)

NCc1csc(-c2cccs2)n1
Kd: > 4 mM (inactive)

COC(=O)c1ccc2snnc2c1
Kd: > 4 mM (inactive)

CC(=O)NCS(=O)(=O)c1ccc(C)cc1
Kd: > 4 mM (inactive)

COCCn1c(SC)nc2c1c(=O)[nH]c(=O)n2C
Kd: > 4 mM (inactive)

C=CC(=O)N1CC2CC(C1)c1cccc(=O)n1C2 (stereo unspecified)
Kd: > 4 mM (inactive)

Cc1cc(C)nc(NC(N)=NCc2ccco2)n1
Kd: > 4 mM (inactive)

COc1ccc2c(c1)O[C@@H]1COc3cc(OC)c(OC)cc3[C@@H]1C2=O
Kd: > 4 mM (inactive)

Cc1nnc2n(c1=O)N=C(c1ccccc1)CS2
Kd: > 4 mM (inactive)

Cc1nnc(N2CCN(c3ccccc3)CC2)[nH]c1=O
Kd: > 4 mM (inactive)

Cc1cc(OC(=O)c2ccco2)c([N+](=O)[O-])c(=O)[nH]1
Kd: > 4 mM (inactive)

CC(C)[C@@H]1CC[C@@H](C)C[C@H]1OC(=O)c1ccccc1
Kd: > 4 mM (inactive)

C#CCCCCCCCCCCCC(O)CC(O)COC(C)=O (stereo unspecified)
Kd: > 4 mM (inactive)

CC(=O)Nc1ccc(NC(C)=O)c(C(F)(F)F)c1
Kd: > 4 mM (inactive)

Cc1ccccc1NC(=O)c1ccccc1
Kd: inactive

COc1ccc(S(=O)(=O)N2CCOCC2)cc1C(C)C
Kd: > 4 mM (inactive)

Cc1onc(-c2ccccc2)c1C(=O)O
Kd: > 4 mM (inactive)

NC(=O)COc1cccc2cccnc12
Kd: > 4 mM (inactive)

O=C(NN1C(=O)C2C3C=CC(C3)C2C1=O)C1CC=CCC1 (stereo unspecified)
Kd: > 4 mM (inactive)

O=C(O)CS(=O)(=O)c1ccccc1[N+](=O)[O-]
Kd: > 4 mM (inactive)

Nc1ccccc1C(=O)N1CCOCC1
Kd: > 4 mM (inactive)

CC12CCCC(O)(C1)C1CC(C)(C)C1CC2 (stereo unspecified)
Kd: > 4 mM (inactive)

NC(=O)c1ccc(SCC(=O)O)c([N+](=O)[O-])c1
Kd: > 4 mM (inactive)

COc1ccccc1-c1n[nH]c(=O)o1
Kd: > 4 mM (inactive)

O=C(O)CCC(=O)c1c[nH]c2ccccc12
Kd: > 4 mM (inactive)

CC(=O)O[C@H]1C[C@@H](OC(C)=O)C(C)(C)C2C[C@@H](O)[C@]3(C)C(CC[C@@]4(C)[C@H](c5ccoc5)OC(=O)[C@H]5O[C@]543)[C@]21C (stereo partly specified)
Kd: > 4 mM (inactive)

CC1=C(C(N)=O)C(c2cccs2)C(C(N)=O)=C(C)N1
Kd: > 4 mM (inactive)

CCc1nnc(NC(C)=O)s1
Kd: > 4 mM (inactive)

C=C[C@H]1CN2CC[C@H]1C[C@@H]2[C@H](O)c1ccnc2ccccc12
Kd: > 4 mM (inactive)

Cn1cc(Cl)c(C(=O)Nc2ccncc2)n1
Kd: > 4 mM (inactive)

CCOc1ccc(Cl)cc1S(=O)(=O)N1CCCC1
Kd: > 4 mM (inactive)

Fc1cccc(F)c1CN1CCN(c2ncccn2)CC1
Kd: > 4 mM (inactive)

O=c1ccc2c([nH]1)CCCC2
Kd: > 4 mM (inactive)

OCC1CCCC1O (stereo unspecified)
Kd: > 4 mM (inactive)

NC(=O)NC1C=CS(=O)(=O)C1 (stereo unspecified)
Kd: > 4 mM (inactive)

CC(=O)O[C@H]1CC[C@@]2(C)C(CC[C@]3(C)C2C(=O)C=C2C4[C@@H](C)[C@H](C)CC[C@]4(C(=O)O)CC[C@]23C)C1(C)C (stereo partly specified)
Kd: > 4 mM (inactive)

OC1CCNC2CCCCC12 (stereo unspecified)
Kd: > 4 mM (inactive)

O=C(Nc1ccc2c(c1)OCO2)c1c(F)cccc1F
Kd: > 4 mM (inactive)

NS(=O)(=O)c1ccc(N=Cc2cccs2)cc1
Kd: > 4 mM (inactive)

Cc1nc(SCC#N)c2c3c(sc2n1)CCC3
Kd: > 4 mM (inactive)

CC(=O)c1c(C)nc2ccccc2c1N
Kd: > 4 mM (inactive)

Nc1ccc(OCc2ccccc2)cc1
Kd: > 4 mM (inactive)

CCC(=O)NC(=S)Nc1ccc(C(N)=O)cc1
Kd: > 4 mM (inactive)

COCc1nn2c(N)c(C#N)cnc2c1-c1ccccc1
Kd: > 4 mM (inactive)

O=C(Oc1ccc(-c2nnco2)cc1)N1CCCCC1
Kd: > 4 mM (inactive)

c1ccc(CNc2ncnc3nc[nH]c23)nc1
Kd: > 4 mM (inactive)

COc1cc2c(cc1OC)[C@@H]1C(=O)c3ccc4c(c3O[C@@H]1CO2)C=CC(C)(C)O4
Kd: > 4 mM (inactive)

OCc1ccc2ncccc2c1
Kd: > 4 mM (inactive)

O=C(O)CCC1NCC2CC1CN1CCCCC21 (stereo unspecified)
Kd: > 4 mM (inactive)

Nc1cccc(S(N)(=O)=O)c1
Kd: > 4 mM (inactive)

CS(=O)(=O)N1CCN(C(=O)c2ccccc2)C1
Kd: > 4 mM (inactive)

CC(=O)N1CN(C(C)=O)CN(C(C)=O)C1
Kd: > 4 mM (inactive)

N#Cc1c(N)c(C(=O)c2ccccc2)n2c1CCC2
Kd: > 4 mM (inactive)

CC(=O)Nc1cccc(NC(=O)c2ccco2)c1
Kd: > 4 mM (inactive)

NCc1csc(-c2ccccc2)n1
Kd: > 4 mM (inactive)

O=C(Nc1nccs1)c1cccnc1
Kd: > 4 mM (inactive)

O=C1NC(=S)NC(=O)C1=Cc1ccncc1
Kd: > 4 mM (inactive)

CC(=O)Oc1cc(-c2coc3cc(OC(C)=O)c(OC(C)=O)c(OC(C)=O)c3c2=O)cc(OC(C)=O)c1OC(C)=O
Kd: > 4 mM (inactive)

Cc1cc(C)cc(OC(=O)N2CCOCC2)c1
Kd: > 4 mM (inactive)

COC(=O)C[C@H]1C(C)(C)C(=O)[C@@H]2CC3=C4CC(=O)O[C@@H](c5ccoc5)[C@]4(C)CCC3C1(C)C2=O (stereo partly specified)
Kd: > 4 mM (inactive)

Nc1ccc2[nH]ncc2c1
Kd: > 4 mM (inactive)

CSc1nsc(SCc2cnc(C)nc2N)n1
Kd: > 4 mM (inactive)

NC(=O)NC1NC(=O)NC1=O (stereo unspecified)
Kd: > 4 mM (inactive)

CCOC(=O)C1CCNCC1
Kd: > 4 mM (inactive)

NC(=O)c1ccccc1N1CCCCC1
Kd: > 4 mM (inactive)
